Tested on: Plasmodium falciparum
Experiment: Antiplasmodial activity against Plasmodium falciparum NF54 infected human A+ erythrocytes after 72 hrs as IC ratio relative to dihydroartemisinin
Format: functional

Row | Structure (SMILES) | Ratio IC50
1 | C=C(C)[C@@H]1OOC2(CCCCC2)O[C@@H]1CCOC1C[C@@H]2O[C@]3(C)CC[C@H]4[C@H](C)CC[C@@H]([C@H]1C)[C@@]24OO3 (mixture of isomers) | 0.49
2 | C=C(C)[C@@H]1OOC(C)(C)O[C@@H]1CCO[C@H]1C[C@@H]2O[C@]3(C)CC[C@H]4[C@H](C)CC[C@@H]([C@H]1C)[C@@]24OO3 | 0.54
